# Measured values: the supplement of paper PMC10307832
# Columns and labels:
# Assay in all cases: relative viability (nuclei count vs DMSO), 5 days (fraction); higher = more cells survive
# [1] = compound: C1=CC=C(C(=C1)C2=CC=C(C=C2)C3=CSC4=C3C(=C(C(=O)N4)C#N)O)O + CC(=O)c1c(C)c2cnc(Nc3ccc(N4CCNCC4)cn3)nc2n(C2CCCC2)c1=O [Palbociclib] (partner 0.5 µM)
# Outline: (§1)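 A single step with final 0.05% Triton X-100, 1% formaldehyde and 1 ug/ml Hoechst fixed the cells and stained nuclei 5 days after treatment. Lung cancer cell lines in 1536-well plates had been treated by pin tool the day after seeding with one drug alone or a fixed anchor-drug dose plus five library-drug doses (not always all listed) in √10 steps, and nuclei were counted on 4× images. Relative viability is the ratio of nuclei in treated wells to nuclei in vehicle wells, taken as the median of duplicate plates.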
# [2] = compound: C1=CC=C(C(=C1)C2=CC=C(C=C2)C3=CSC4=C3C(=C(C(=O)N4)C#N)O)O + N=C(N)NC(=N)NCCc1ccccc1 [Phenformin] (partner 250 µM)
# Outline: as §1
# TGX 221 + Crizotinib = compound: CC1=CN2C(=O)C=C(N=C2C(=C1)C(C)NC3=CC=CC=C3)N4CCOCC4 [TGX 221] + C[C@@H](Oc1cc(-c2cnn(C3CCNCC3)c2)cnc1N)c1c(Cl)ccc(F)c1Cl [Crizotinib] (partner 1 µM)
# Outline: as §1
# [3] = compound: O=C(CCCCCCNC(=O)c1cnc(N(c2ccccc2)c2ccccc2)nc1)NO [Ricolinostat] + CC(C)C[C@H](NC(=O)[C@H](Cc1ccccc1)NC(=O)c1cnccn1)B(O)O [Bortezomib] (partner 0.002 µM)
# Outline: as §1
Cell Line,relative viability ([1]; first compound 0.08 µM),relative viability ([1]; first compound 0.253 µM),relative viability ([1]; first compound 0.8 µM),relative viability ([1]; first compound 2.53 µM),relative viability ([1]; first compound 8 µM),relative viability ([2]; first compound 0.08 µM),relative viability ([2]; first compound 0.253 µM),relative viability ([2]; first compound 0.8 µM),relative viability ([2]; first compound 2.53 µM),relative viability ([2]; first compound 8 µM),relative viability (TGX 221 + Crizotinib; first compound 0.08 µM),relative viability (TGX 221 + Crizotinib; first compound 0.253 µM),relative viability (TGX 221 + Crizotinib; first compound 0.8 µM),relative viability (TGX 221 + Crizotinib; first compound 2.53 µM),relative viability (TGX 221 + Crizotinib; first compound 8 µM),relative viability ([3]; first compound 0.08 µM),relative viability ([3]; first compound 0.253 µM),relative viability ([3]; first compound 0.8 µM),relative viability ([3]; first compound 2.53 µM)
NCI-H2342,0.538,0.513,0.538,0.488,0.529,0.578,0.704,0.58,0.602,0.469,–,–,–,–,–,–,–,–,–
SK-LU-1,0.35,0.37,0.378,0.389,0.355,0.378,0.44,0.538,0.639,0.566,0.836,0.809,0.901,0.825,0.803,0.895,1.04,0.916,0.46
NCI-H2023,0.334,0.35,0.324,0.41,0.376,0.342,0.351,0.429,0.466,0.37,0.594,0.532,0.689,0.591,0.463,0.822,1.09,0.88,0.839
NCI-H1299,–,–,–,–,–,–,–,–,–,–,0.933,0.942,0.949,0.96,0.904,0.998,0.955,1.04,0.937
LOU-NH91,0.501,0.542,0.535,0.544,0.534,0.716,0.726,0.655,0.616,0.63,0.796,0.75,0.746,0.735,0.655,–,0.502,0.497,0.446
LCLC-103H,0.445,0.407,0.451,0.491,0.449,0.265,0.342,0.374,0.354,0.305,1.12,1.06,0.986,0.959,0.876,0.79,0.88,1.09,0.927
SW 1573,0.366,0.378,0.447,0.396,0.321,0.343,0.351,0.343,0.333,0.233,0.723,0.72,0.74,0.769,0.756,0.834,1.13,1.06,1.13
NCI-H1755,0.447,0.482,0.418,0.42,0.48,0.693,0.647,0.606,0.617,0.6,0.873,0.863,0.827,0.752,0.607,0.929,–,0.978,0.926
COR-L 105,0.431,0.403,0.419,0.401,0.42,0.47,0.649,0.348,0.401,0.402,0.883,0.748,0.967,0.728,0.519,0.844,0.885,0.946,0.993
NCI-H1793,0.255,0.422,0.316,0.285,0.261,0.306,0.427,0.372,0.318,0.229,–,–,–,–,–,–,–,–,–
EMC-BAC-2,0.523,0.595,0.507,0.539,0.51,0.38,0.563,0.492,0.533,0.43,0.745,0.706,0.746,0.743,0.569,0.957,1.12,1.06,0.941
H3255,0.311,0.346,0.294,0.31,0.319,0.326,0.39,0.377,0.347,0.362,0.745,0.812,0.881,0.848,0.575,0.516,0.727,0.678,0.617
PC-14,0.496,0.56,0.537,0.574,0.34,0.489,0.676,0.561,0.555,0.355,0.934,0.845,0.865,0.85,0.885,0.812,0.844,0.872,0.692
NCI-H661,0.426,0.419,0.392,0.394,0.391,0.31,0.298,0.257,0.254,0.298,–,1.12,0.973,0.959,1.07,–,0.743,0.997,1.19
HARA,0.228,0.211,0.218,0.234,0.279,0.323,0.542,0.433,0.431,0.425,1.06,1.02,0.905,1.16,0.795,1.05,1.02,1.1,0.638
COR-L23,0.297,0.384,0.374,0.323,0.243,0.383,0.467,0.464,0.467,0.372,0.597,0.523,0.727,0.597,0.619,0.919,0.894,0.951,0.464
SK-MES-1,0.296,0.305,0.306,0.305,0.315,0.643,0.682,0.659,0.708,0.615,1.05,0.982,0.998,0.841,0.582,–,–,–,–
NCI-H1395,–,0.706,0.593,0.611,0.657,0.41,0.435,0.396,0.437,0.399,–,–,–,–,–,–,–,–,–
NCI-H2170,0.349,0.407,0.404,0.434,0.329,0.38,0.423,0.441,0.403,0.375,1.11,1.2,1.19,0.987,1.14,–,–,–,–
NCI-H647,–,0.387,0.392,0.346,0.22,0.285,0.615,0.586,0.555,0.349,1.12,0.947,1.06,1.04,0.553,0.877,1.06,0.948,0.421
CAL-12T,0.429,0.62,0.455,0.405,0.437,0.566,0.668,0.593,0.575,0.547,0.53,0.673,0.72,0.689,0.595,0.814,0.833,0.816,0.937
201T,0.381,0.361,0.362,0.38,0.387,0.335,0.451,0.46,0.462,0.434,–,1.07,1.01,0.993,0.985,0.989,1.11,1.09,1.12

Cell Line,relative viability ([1]; first compound 0.08 µM),relative viability ([1]; first compound 0.253 µM),relative viability ([1]; first compound 0.8 µM),relative viability ([1]; first compound 2.53 µM),relative viability ([1]; first compound 8 µM),relative viability ([2]; first compound 0.08 µM),relative viability ([2]; first compound 0.253 µM),relative viability ([2]; first compound 0.8 µM),relative viability ([2]; first compound 2.53 µM),relative viability ([2]; first compound 8 µM),relative viability (TGX 221 + Crizotinib; first compound 0.08 µM),relative viability (TGX 221 + Crizotinib; first compound 0.253 µM),relative viability (TGX 221 + Crizotinib; first compound 0.8 µM),relative viability (TGX 221 + Crizotinib; first compound 2.53 µM),relative viability (TGX 221 + Crizotinib; first compound 8 µM),relative viability ([3]; first compound 0.08 µM),relative viability ([3]; first compound 0.253 µM),relative viability ([3]; first compound 0.8 µM),relative viability ([3]; first compound 2.53 µM)
HCC-366,–,0.371,0.357,0.509,0.395,0.632,0.623,0.584,0.646,0.591,0.561,0.524,0.483,0.448,0.398,0.906,1.11,0.904,0.639
NCI-H1944,0.329,0.343,0.352,0.306,0.289,0.155,0.207,0.166,0.215,0.175,1.07,1.03,1.02,1.09,0.863,–,–,–,–
NCI-H1651,0.506,0.491,0.483,0.518,0.48,0.272,0.336,0.398,0.365,0.278,–,0.834,0.865,0.839,0.753,0.941,0.865,0.918,0.984
LCLC-97TM1,0.24,0.233,0.268,0.26,0.204,0.43,0.443,0.463,0.498,0.46,0.394,0.299,0.41,0.263,0.252,–,0.59,0.212,0.163
LC-2-ad,0.416,0.406,0.461,0.499,0.441,0.518,0.657,0.608,0.576,0.551,0.438,0.423,0.475,0.499,0.486,0.992,0.984,0.966,0.787
NCI-H2347,0.46,0.429,0.361,0.442,0.423,0.265,0.429,0.496,0.342,0.419,0.67,0.666,0.635,0.701,0.542,–,1.1,0.979,0.713
NCI-H2009,0.19,0.196,0.174,0.22,0.228,0.443,0.505,0.457,0.496,0.387,0.964,0.978,1,1.03,0.773,0.834,0.979,0.93,0.763
NCI-H1650,0.23,0.332,0.317,0.31,0.31,0.406,0.358,0.437,0.439,0.362,0.828,0.857,0.875,0.956,0.545,0.184,0.195,0.193,0.205
NCI-H1703,–,–,–,–,–,–,–,–,–,–,0.797,0.618,0.715,0.31,0.54,–,0.299,0.261,0.172
LK-2,0.515,0.749,0.629,0.913,0.517,–,0.466,0.376,0.661,0.245,0.252,0.212,0.235,0.213,0.269,–,–,–,–
SW 900,–,0.621,0.638,0.518,0.429,0.484,0.895,0.534,0.638,0.405,–,–,–,–,–,–,–,–,–
NCI-H358,0.13,0.17,0.124,0.135,0.123,0.25,0.39,0.373,0.353,0.283,0.556,0.535,0.661,0.633,0.395,–,–,–,–
NCI-H596,–,–,–,–,–,0.629,0.695,0.741,0.724,0.571,0.993,1.04,1,0.823,0.82,0.896,1.09,1.13,–
NCI-H1563,–,–,–,–,–,0.63,0.714,0.702,0.622,0.679,0.846,0.832,0.766,0.736,0.666,0.754,0.758,0.837,0.787
Calu-6,–,–,–,–,–,–,–,–,–,–,0.718,0.698,0.806,0.768,0.693,1.08,1.01,0.982,0.957
NCI-H1623,–,–,–,–,–,0.623,0.623,0.569,0.568,0.534,–,–,–,–,–,–,–,–,–
EBC-1,–,–,–,–,–,–,–,–,–,–,0.203,0.183,0.211,0.178,0.183,0.49,0.458,0.386,0.263
NCI-H522,0.943,1.06,0.916,0.944,0.881,0.643,0.613,0.747,0.571,0.63,–,–,–,–,–,–,–,–,–
NCI-H1648,–,0.282,0.319,0.261,0.274,–,–,–,–,–,–,–,–,–,–,–,–,–,–
A549,–,–,–,–,–,0.124,0.184,0.123,0.192,0.238,0.677,0.743,0.773,0.751,0.529,–,–,–,–
IA-LM,–,–,–,–,–,–,–,–,–,–,0.879,0.711,0.903,0.864,0.788,0.628,0.696,0.73,0.594
